Drawing on patent US9662327B2 (AGIOS PHARMACEUTICALS, INC, priority 2011, dated 2017), this text covers IC50 for 20 compounds.

In one assay the target is IDH1 R132H (Homo sapiens (Human), UniProt O75874, R132H). As to the kind of experiment: Assays for IDH1 R132H Inhibitors (NADPH/aKG, resazurin detection). Format: biochemical. Particulars: IDH1 R132H enzyme, Table 3; read-out: R132H IC50. In short, it runs like this:
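Mutant enzyme in 150 mM NaCl, 10 mM MgCl2, 20 mM Tris pH 7.5, 0.03% BSA; compound in DMSO added to substrate mix of 8 uM NADPH and 2 mM aKG. Reaction ran 50 min at room temperature, then resazurin detection mix (30 μM) added for 5 min at room temperature.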
For orientation: Alamar Blue is a resazurin reagent that responds to reducing activity.

Another assay has as its system U87R132H (U87MG) cells. Description: Cellular assay for IDH1m inhibitors: inhibition of 2-HG production in U87MG (U87R132H) cells (LC-MS). Format: cell-based. Particulars: Homo sapiens, U-87 MG, 48 hours. The protocol: (§1) Cells (e.g., HT1080 or U87MG) are grown in T125 flasks in DMEM containing 10% FBS, 1× penicillin/streptomycin and 500 ug/mL G418. They are harvested by trypsin and seeded into 96 well white bottom plates at a density of 5000 cell/well in 100 ul/well in DMEM with 10% FBS. No cells are plates in columns 1 and 12. Cells are incubated overnight at 37 C in 5% CO2. The next day compounds are made up at 2× concentration and 100 ul are added to each cell well. The final concentration of DMSO is 0.2% and the DMSO control wells are plated in row G. The plates are then placed in the incubator for 48 hours. At 48 hours, 100 ul of media is removed from each well and analyzed by LC-MS for 2-HG concentrations. The cell plate is placed back in the incubator for another 24 hours. At 72 hours post compound addition, 10 mL/plate of Promega Cell Titer Glo reagent is thawed and mixed. The cell plate is removed from the incubator and allowed to equilibrate to room temperature. Then 100 ul of reagent is added to each well of media. The cell plate is then placed on an orbital shaker for 10 minutes and then allowed to sit at room temperature for 20 minutes. The plate is then read for luminescence with an integration time of 500 ms.

The subject of a further assay is HT1080 cells. Description: Cellular assay for IDH1m inhibitors: inhibition of 2-HG production in HT1080 cells (LC-MS). The settings on record: Homo sapiens, HT-1080, 48 hours. It is filed as cell-based. The protocol: as §1

Molecules are shown by their SMILES.

Chain of IDH1 R132H (O75874 whole entry R132H): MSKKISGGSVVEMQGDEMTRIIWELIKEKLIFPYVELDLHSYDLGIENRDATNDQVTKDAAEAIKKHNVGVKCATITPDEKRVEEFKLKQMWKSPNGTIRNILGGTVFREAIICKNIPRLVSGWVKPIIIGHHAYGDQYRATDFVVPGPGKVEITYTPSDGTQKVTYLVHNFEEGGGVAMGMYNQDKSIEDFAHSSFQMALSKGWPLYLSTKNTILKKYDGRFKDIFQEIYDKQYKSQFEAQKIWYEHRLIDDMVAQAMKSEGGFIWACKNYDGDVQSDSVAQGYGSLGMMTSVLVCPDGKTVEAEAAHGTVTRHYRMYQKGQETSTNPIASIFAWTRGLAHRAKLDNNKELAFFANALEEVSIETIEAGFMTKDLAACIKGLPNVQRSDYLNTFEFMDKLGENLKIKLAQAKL

For the compound `[2H]C([2H])([2H])C([2H])(C([2H])([2H])[2H])[C@@]1([2H])N(C(=O)CCC(=O)OC)C([2H])([2H])C([2H])([2H])N(c2nc(C3CC3)c3c(c2C#N)CC(C)(C)OC3)C1([2H])[2H]` [Compound 450], the IC50 at IDH1 R132H, in the assay on U87R132H (U87MG) cells and in the assay on HT1080 cells was less than 500 nM in each case.

Consider `CNC(=O)CC(=O)N1CCN(c2nc(C3CC3)c3c(c2C#N)CC(C)(C)OC3)C[C@H]1C(C)C` [Compound 422, (R)-3-(4-(5-cyano-8-cyclopropyl-3,3-dimethyl-3,4-dihydro-1H-pyrano[3,4-c]pyridin-6-yl)-2-isopropylpiperazin-1-yl)-N-methyl-3-oxopropanamide], for which the values for the IC50 at IDH1 R132H, in the assay on U87R132H (U87MG) cells and in the assay on HT1080 cells were 500 to 1000 nM, 1000 to 10000 nM and 1000 to 10000 nM, respectively.

For the compound `CC(C)OC(=O)CCC(=O)N1CCN(c2nc(C3CC3)c3c(c2C#N)CC(C)(C)OC3)C[C@H]1C(C)C` [Compound 457, (R)-isopropyl 4-(4-(5-cyano-8-cyclopropyl-3,3-dimethyl-3,4-dihydro-1H-pyrano[3,4-c]pyridin-6-yl)-2-isopropylpiperazin-1-yl)-4-oxobutanoate], the half-maximal inhibitory concentration (IC50) – broadly, the concentration that gives 50% inhibition – is less than 500 nM at IDH1 R132H, 500 to 1000 nM in the assay with U87R132H (U87MG) cells and 500 to 1000 nM with HT1080 cells.

As to `CC(C)[C@@H]1CN(c2nc(C3CC3)c3c(c2C#N)CC(C)(C)OC3)CCN1C(=O)CCO` [Compound 429, (R)-8-cyclopropyl-6-(4-(3-hydroxypropanoyl)-3-isopropylpiperazin-1-yl)-3,3-dimethyl-3,4-dihydro-1H-pyrano[3,4-c]pyridine-5-carbonitrile], the IC50 at IDH1 R132H, in the assay with U87R132H (U87MG) cells and in the assay with HT1080 cells was less than 500 nM each time.

Regarding `COCCCC(=O)N1CCN(c2nc(C3CC3)c3c(c2C#N)CC(C)(C)OC3)C[C@H]1C(C)C` [Compound 424, (R)-8-cyclopropyl-6-(3-isopropyl-4-(4-methoxybutanoyl)piperazin-1-yl)-3,3-dimethyl-3,4-dihydro-1H-pyrano[3,4-c]pyridine-5-carbonitrile], the figures for the IC50 at IDH1 R132H, in the assay on U87R132H (U87MG) cells and in the assay on HT1080 cells were less than 500 nM, 500 to 1000 nM and 500 to 1000 nM, respectively.

Consider `C=CS(=O)(=O)N1CCc2c(C#N)c(-c3ccc(C(=O)OC)cc3F)nc(C3CC3)c2C1` [Compound 496], for which the IC50 on IDH1 R132H, in the assay with U87R132H (U87MG) cells and in the assay with HT1080 cells was less than 500 nM in each case.

On to `C=CC(=O)N1CCc2c(C#N)c(N3CCN(C(=O)CCO)[C@H](C4CC4)C3)nc(C3CC3)c2C1` [Compound 498, (R)-7-acryloyl-1-cyclopropyl-3-(3-cyclopropyl-4-(3-hydroxypropanoyl)piperazin-1-yl)-5,6,7,8-tetrahydro-2,7-naphthyridine-4-carbonitrile], for which the 50% inhibitory concentration (IC50) on IDH1 R132H, in the assay with U87R132H (U87MG) cells and in the assay with HT1080 cells was less than 500 nM throughout.

Regarding `COC(=O)NCCC(=O)N1CCN(c2nc(C3CC3)c3c(c2C#N)CC(C)(C)OC3)C[C@H]1C(C)C` [Compound 431, (R)-methyl 3-(4-(5-cyano-8-cyclopropyl-3,3-dimethyl-3,4-dihydro-1H-pyrano[3,4-c]pyridin-6-yl)-2-isopropylpiperazin-1-yl)-3-oxopropylcarbamate], the IC50 fell in the range of 500 to 1000 nM on IDH1 R132H, 1000 to 10000 nM with U87R132H (U87MG) cells and 1000 to 10000 nM in the assay on HT1080 cells.

Consider `CCOC(=O)CCC(=O)N1CCN(c2nc(C3CC3)c3c(c2C#N)CC(C)(C)OC3)C[C@H]1C(C)C` [Compound 456, (R)-ethyl-4-(4-(5-cyano-8-cyclopropyl-3,3-dimethyl-3,4-dihydro-1H-pyrano[3,4-c]pyridin-6-yl)-2-isopropylpiperazin-1-yl)-4-oxobutanoate], for which the IC50 is less than 500 nM at IDH1 R132H, less than 500 nM with U87R132H (U87MG) cells and 500 to 1000 nM with HT1080 cells.

`[2H]C1([2H])CN(c2nc(C3CC3)c3c(c2C#N)CC(C)(C)OC3)C([2H])([2H])C([2H])(C([2H])(C([2H])([2H])[2H])C([2H])([2H])[2H])N1C(=O)CC(F)(F)F` [Compound 476, (R)-8-cyclopropyl-3,3-dimethyl-6-(2,2,3,5,5-pentadeuterio-3-(1,1,1,3,3,3-hexadeuteriopropan-2-yl)-4-(3,3,3-trifluoropropanoyl)piperazin-1-yl)-3,4-dihydro-1H-pyrano[3,4-c]pyridine-5-carbonitrile]: the IC50 is less than 500 nM at IDH1 R132H, 1000 to 10000 nM in the assay on U87R132H (U87MG) cells and 1000 to 10000 nM with HT1080 cells.

As to `CC1(C)Cc2c(C#N)c(N3CCN(C(=O)CC(F)(F)F)C(C4CC4)C3)nc(C3CC3)c2CO1` (stereo not drawn) [Compound 430, 8-cyclopropyl-6-(3-cyclopropyl-4-(3,3,3-trifluoropropanoyl)piperazin-1-yl)-3,3-dimethyl-3,4-dihydro-1H-pyrano[3,4-c]pyridine-5-carbonitrile], the IC50 is less than 500 nM at IDH1 R132H, less than 500 nM in the assay with U87R132H (U87MG) cells and 500 to 1000 nM with HT1080 cells.

On to `C#CC(=O)N1CCc2c(C3CC3)nc(N3CCN(C(=O)CCOC)[C@H](C4CC4)C3)c(C#N)c2C1` [Compound 486, (R)-1-cyclopropyl-3-(3-cyclopropyl-4-(3-methoxypropanoyl)piperazin-1-yl)-6-propioloyl-5,6,7,8-tetrahydro-2,6-naphthyridine-4-carbonitrile], for which the IC50 on IDH1 R132H, with U87R132H (U87MG) cells and in the assay on HT1080 cells was less than 500 nM in each case.

On to `C=CS(=O)(=O)N1CCc2c(C#N)c(N3CCN(C(=O)C4CC4)[C@H](C4CC4)C3)nc(C3CC3)c2C1` [Compound 493, (R)-3-(4-(cyclopropanecarbonyl)-3-cyclopropylpiperazin-1-yl)-1-cyclopropyl-7-(vinylsulfonyl)-5,6,7,8-tetrahydro-2,7-naphthyridine-4-carbonitrile], for which the IC50 on IDH1 R132H, in the assay with U87R132H (U87MG) cells and in the assay with HT1080 cells was less than 500 nM throughout.

Regarding `COCCC(=O)N1CCN(c2nc(C3CC3)c3c(c2C#N)CC(C)(C)OC3)CC1C1CC1` (stereo not drawn) [Compound 425, 8-cyclopropyl-6-(3-cyclopropyl-4-(3-methoxypropanoyl)piperazin-1-yl)-3,3-dimethyl-3,4-dihydro-1H-pyrano[3,4-c]pyridine-5-carbonitrile], the IC50 on IDH1 R132H, in the assay on U87R132H (U87MG) cells and in the assay with HT1080 cells was less than 500 nM throughout.

For the compound `CC(C)[C@@H]1CN(c2nc(C3CC3)c3c(c2C#N)CC(C)(C)OC3)CCN1C(=O)CCCO` [Compound 443, (R)-8-cyclopropyl-6-(4-(4-hydroxybutanoyl)-3-isopropylpiperazin-1-yl)-3,3-dimethyl-3,4-dihydro-1H-pyrano[3,4-c]pyridine-5-carbonitrile], the results for the IC50 on IDH1 R132H, with U87R132H (U87MG) cells and in the assay on HT1080 cells were less than 500 nM, 1000 to 10000 nM and 1000 to 10000 nM, respectively.

As for `CCOC(=O)C1CN(c2nc(C3CC3)c3c(c2C#N)CC(C)(C)OC3)CCN1C(=O)Cc1cccs1` (stereo not drawn) [Compound 421, Ethyl 4-(5-cyano-8-cyclopropyl-3,3-dimethyl-3,4-dihydro-1H-pyrano[3,4-c]pyridin-6-yl)-1-(2-(thiophen-2-yl)acetyl)piperazine-2-carboxylate], the IC50 at IDH1 R132H lay within 500 to 1000 nM; in the assay on U87R132H (U87MG) cells, 1000 to 10000 nM; in the assay on HT1080 cells, 1000 to 10000 nM.

In the case of `CC1(C)Cc2c(C#N)c(N3CCN(C(=O)C4CC4)[C@H](C4CC4)C3)nc(C3CC3)c2CO1` [Compound 461, (R)-6-(4-(cyclopropanecarbonyl)-3-cyclopropylpiperazin-1-yl)-8-cyclopropyl-3,3-dimethyl-3,4-dihydro-1H-pyrano[3,4-c]pyridine-5-carbonitrile], the results for the IC50 on IDH1 R132H, in the assay on U87R132H (U87MG) cells and in the assay with HT1080 cells were less than 500 nM, less than 500 nM and 500 to 1000 nM, respectively.

As to `COCCC(=O)N1CCN(c2nc(C3CC3)c3c(c2C#N)CC(C)(C)OC3)C[C@H]1C` [Compound 432, (R)-8-cyclopropyl-6-(4-(3-methoxypropanoyl)-3-methylpiperazin-1-yl)-3,3-dimethyl-3,4-dihydro-1H-pyrano[3,4-c]pyridine-5-carbonitrile], the IC50 is 500 to 1000 nM at IDH1 R132H, 1000 to 10000 nM in the assay with U87R132H (U87MG) cells and 1000 to 10000 nM in the assay with HT1080 cells.

For the compound `CCOC(=O)[C@@H]1C[C@H]1C(=O)N1CCN(c2nc(C3CC3)c3c(c2C#N)CC(C)(C)OC3)C[C@H]1C(C)C` [Compound 465, (1R,2R)-ethyl 2-((R)-4-(5-cyano-8-cyclopropyl-3,3-dimethyl-3,4-dihydro-1H-pyrano[3,4-c]pyridin-6-yl)-2-isopropylpiperazine-1-carbonyl)cyclopropanecarboxylate], the IC50 on IDH1 R132H was less than 500 nM; with U87R132H (U87MG) cells, less than 500 nM; in the assay on HT1080 cells, 500 to 1000 nM.

Take `[2H]C([2H])([2H])C([2H])(C([2H])([2H])[2H])[C@@]1([2H])N(C(=O)CCOC)C([2H])([2H])C([2H])([2H])N(c2nc(C3CC3)c3c(c2C#N)CC(C)(C)OC3)C1([2H])[2H]` [Compound 441, (R)-8-cyclopropyl-6-(2,2,3,3,5,6,6-heptadeuterio-4-(3-methoxypropanoyl)-5-(perdeuteriopropan-2-yl)piperazin-1-yl)-3,3-dimethyl-3,4-dihydro-1H-pyrano[3,4-c]pyridine-5-carbonitrile]: the IC50 on IDH1 R132H, in the assay with U87R132H (U87MG) cells and in the assay on HT1080 cells was less than 500 nM each time.
